Source: PubChem BioAssay AID1259407 (Chemical Carcinogenesis Research Information System (CCRIS), 2018)
Calls of active or inactive are those of the source. No rule for the calls is given here.

System: CCRIS mutagenicity, Ames/micronucleus/aberration tests
Assay: CCRIS mutagenicity studies
[1] = Test System: AMES SALMONELLA TYPHIMURIUM, Strain/Indicator: TA98, Metabolic Activation: NONE, Method: STANDARD PLATE
[2] = Test System: AMES SALMONELLA TYPHIMURIUM, Strain/Indicator: TA98, Metabolic Activation: RAT, LIVER, S-9, AROCLOR 1254, Method: STANDARD PLATE
[3] = Test System: AMES SALMONELLA TYPHIMURIUM, Strain/Indicator: TA100, Metabolic Activation: NONE, Method: STANDARD PLATE
[4] = Test System: AMES SALMONELLA TYPHIMURIUM, Strain/Indicator: TA100, Metabolic Activation: RAT, LIVER, S-9, AROCLOR 1254, Method: STANDARD PLATE

## CC(=O)c1ccc(S(=O)(=O)NC(=O)NC2CCCCC2)cc1
Test System: AMES SALMONELLA TYPHIMURIUM, Strain/Indicator: TA98, Metabolic Activation: HAMSTER, LIVER, S-9, AROCLOR 1254, Method: STANDARD PLATE
  mutagenic call: inactive; negative
Test System: AMES SALMONELLA TYPHIMURIUM, Strain/Indicator: TA98, Metabolic Activation: HAMSTER, LIVER, S-9, Method: STANDARD PLATE
  mutagenic call: inactive; negative
Test System: AMES SALMONELLA TYPHIMURIUM, Strain/Indicator: TA98, Metabolic Activation: MOUSE, LIVER, S-9, AROCLOR 1254, Method: STANDARD PLATE
  mutagenic call: inactive; negative
Test System: AMES SALMONELLA TYPHIMURIUM, Strain/Indicator: TA98, Metabolic Activation: MOUSE, LIVER, S-9, Method: STANDARD PLATE
  mutagenic call: inactive; negative
[1]
  mutagenic call: inactive; negative
[2]
  mutagenic call: inactive; negative
Test System: AMES SALMONELLA TYPHIMURIUM, Strain/Indicator: TA98, Metabolic Activation: RAT, LIVER, S-9, Method: STANDARD PLATE
  mutagenic call: inactive; negative
Test System: AMES SALMONELLA TYPHIMURIUM, Strain/Indicator: TA100, Metabolic Activation: HAMSTER, LIVER, S-9, AROCLOR 1254, Method: STANDARD PLATE
  mutagenic call: inactive; negative
Test System: AMES SALMONELLA TYPHIMURIUM, Strain/Indicator: TA100, Metabolic Activation: HAMSTER, LIVER, S-9, Method: STANDARD PLATE
  mutagenic call: inactive; negative
Test System: AMES SALMONELLA TYPHIMURIUM, Strain/Indicator: TA100, Metabolic Activation: MOUSE, LIVER, S-9, AROCLOR 1254, Method: STANDARD PLATE
  mutagenic call: inactive; negative
Test System: AMES SALMONELLA TYPHIMURIUM, Strain/Indicator: TA100, Metabolic Activation: MOUSE, LIVER, S-9, Method: STANDARD PLATE
  mutagenic call: inactive; negative
[3]
  mutagenic call: inactive; negative
[4]
  mutagenic call: inactive; negative
Test System: AMES SALMONELLA TYPHIMURIUM, Strain/Indicator: TA100, Metabolic Activation: RAT, LIVER, S-9, Method: STANDARD PLATE
  mutagenic call: inactive; negative
Test System: AMES SALMONELLA TYPHIMURIUM, Strain/Indicator: TA1535, Metabolic Activation: HAMSTER, LIVER, S-9, AROCLOR 1254, Method: STANDARD PLATE
  mutagenic call: inactive; negative
Test System: AMES SALMONELLA TYPHIMURIUM, Strain/Indicator: TA1535, Metabolic Activation: HAMSTER, LIVER, S-9, Method: STANDARD PLATE
  mutagenic call: inactive; negative
Test System: AMES SALMONELLA TYPHIMURIUM, Strain/Indicator: TA1535, Metabolic Activation: MOUSE, LIVER, S-9, AROCLOR 1254, Method: STANDARD PLATE
  mutagenic call: inactive; negative
Test System: AMES SALMONELLA TYPHIMURIUM, Strain/Indicator: TA1535, Metabolic Activation: MOUSE, LIVER, S-9, Method: STANDARD PLATE
  mutagenic call: inactive; negative
Test System: AMES SALMONELLA TYPHIMURIUM, Strain/Indicator: TA1535, Metabolic Activation: NONE, Method: STANDARD PLATE
  mutagenic call: inactive; negative
Test System: AMES SALMONELLA TYPHIMURIUM, Strain/Indicator: TA1535, Metabolic Activation: RAT, LIVER, S-9, AROCLOR 1254, Method: STANDARD PLATE
  mutagenic call: inactive; negative
Test System: AMES SALMONELLA TYPHIMURIUM, Strain/Indicator: TA1535, Metabolic Activation: RAT, LIVER, S-9, Method: STANDARD PLATE
  mutagenic call: inactive; negative
Test System: AMES SALMONELLA TYPHIMURIUM, Strain/Indicator: TA1537, Metabolic Activation: HAMSTER, LIVER, S-9, AROCLOR 1254, Method: STANDARD PLATE
  mutagenic call: inactive; negative
Test System: AMES SALMONELLA TYPHIMURIUM, Strain/Indicator: TA1537, Metabolic Activation: HAMSTER, LIVER, S-9, Method: STANDARD PLATE
  mutagenic call: inactive; negative
Test System: AMES SALMONELLA TYPHIMURIUM, Strain/Indicator: TA1537, Metabolic Activation: MOUSE, LIVER, S-9, AROCLOR 1254, Method: STANDARD PLATE
  mutagenic call: inactive; negative
Test System: AMES SALMONELLA TYPHIMURIUM, Strain/Indicator: TA1537, Metabolic Activation: MOUSE, LIVER, S-9, Method: STANDARD PLATE
  mutagenic call: inactive; negative
Test System: AMES SALMONELLA TYPHIMURIUM, Strain/Indicator: TA1537, Metabolic Activation: NONE, Method: STANDARD PLATE
  mutagenic call: inactive; negative
Test System: AMES SALMONELLA TYPHIMURIUM, Strain/Indicator: TA1537, Metabolic Activation: RAT, LIVER, S-9, AROCLOR 1254, Method: STANDARD PLATE
  mutagenic call: inactive; negative
Test System: AMES SALMONELLA TYPHIMURIUM, Strain/Indicator: TA1537, Metabolic Activation: RAT, LIVER, S-9, Method: STANDARD PLATE
  mutagenic call: inactive; negative
Test System: AMES SALMONELLA TYPHIMURIUM, Strain/Indicator: TA1538, Metabolic Activation: HAMSTER, LIVER, S-9, AROCLOR 1254, Method: STANDARD PLATE
  mutagenic call: inactive; negative
Test System: AMES SALMONELLA TYPHIMURIUM, Strain/Indicator: TA1538, Metabolic Activation: HAMSTER, LIVER, S-9, Method: STANDARD PLATE
  mutagenic call: inactive; negative
Test System: AMES SALMONELLA TYPHIMURIUM, Strain/Indicator: TA1538, Metabolic Activation: MOUSE, LIVER, S-9, AROCLOR 1254, Method: STANDARD PLATE
  mutagenic call: inactive; negative
Test System: AMES SALMONELLA TYPHIMURIUM, Strain/Indicator: TA1538, Metabolic Activation: MOUSE, LIVER, S-9, Method: STANDARD PLATE
  mutagenic call: inactive; negative
Test System: AMES SALMONELLA TYPHIMURIUM, Strain/Indicator: TA1538, Metabolic Activation: NONE, Method: STANDARD PLATE
  mutagenic call: inactive; negative
Test System: AMES SALMONELLA TYPHIMURIUM, Strain/Indicator: TA1538, Metabolic Activation: RAT, LIVER, S-9, AROCLOR 1254, Method: STANDARD PLATE
  mutagenic call: inactive; negative
Test System: AMES SALMONELLA TYPHIMURIUM, Strain/Indicator: TA1538, Metabolic Activation: RAT, LIVER, S-9, Method: STANDARD PLATE
  mutagenic call: inactive; negative
Test System: E. COLI, Strain/Indicator: WP2 UVRA, Metabolic Activation: HAMSTER, LIVER, S-9, AROCLOR 1254, Method: STANDARD PLATE
  mutagenic call: inactive; negative
Test System: E. COLI, Strain/Indicator: WP2 UVRA, Metabolic Activation: HAMSTER, LIVER, S-9, Method: STANDARD PLATE
  mutagenic call: inactive; negative
Test System: E. COLI, Strain/Indicator: WP2 UVRA, Metabolic Activation: MOUSE, LIVER, S-9, AROCLOR 1254, Method: STANDARD PLATE
  mutagenic call: inactive; negative
Test System: E. COLI, Strain/Indicator: WP2 UVRA, Metabolic Activation: MOUSE, LIVER, S-9, Method: STANDARD PLATE
  mutagenic call: inactive; negative
Test System: E. COLI, Strain/Indicator: WP2 UVRA, Metabolic Activation: NONE, Method: STANDARD PLATE
  mutagenic call: inactive; negative
Test System: E. COLI, Strain/Indicator: WP2 UVRA, Metabolic Activation: RAT, LIVER, S-9, AROCLOR 1254, Method: STANDARD PLATE
  mutagenic call: inactive; negative
Test System: E. COLI, Strain/Indicator: WP2 UVRA, Metabolic Activation: RAT, LIVER, S-9, Method: STANDARD PLATE
  mutagenic call: inactive; negative

## O=C1c2ccccc2C([N+](=O)[O-])c2ccccc21
[1]
  mutagenic call: inactive; negative
[2]
  mutagenic call: inactive; negative
[3]
  mutagenic call: inactive; negative
[4]
  mutagenic call: inactive; negative

## O=[N+]([O-])c1cccc2nc3cccc([N+](=O)[O-])c3nc12
Test System: AMES SALMONELLA TYPHIMURIUM, Strain/Indicator: TA98(NR), Metabolic Activation: NONE, Method: PREINCUBATION
  mutagenic call: active; positive
Test System: AMES SALMONELLA TYPHIMURIUM, Strain/Indicator: TA98, Metabolic Activation: NONE, Method: PREINCUBATION
  mutagenic call: active; positive

## CC(=O)OC(C(C)=O)N(C)N=O (stereo unspecified)
Test System: AMES SALMONELLA TYPHIMURIUM, Strain/Indicator: TA1535, Metabolic Activation: NONE, Method: PREINCUBATION
  mutagenic call: active; positive

## OCCN(CCO)c1ccc2ccccc2c1
[3]
  mutagenic call: inactive; negative
Test System: AMES SALMONELLA TYPHIMURIUM, Strain/Indicator: TA100, Metabolic Activation: RAT, LIVER, S-9, AROCLOR (10%), Method: STANDARD PLATE
  mutagenic call: active; positive

## Cc1ccc2nc3ccc(C)cc3c(N)c2c1
Test System: AMES SALMONELLA TYPHIMURIUM, Strain/Indicator: TA1537, Metabolic Activation: NONE, Method: PREINCUBATION
  mutagenic call: active; positive

## ClN1C2c3ccccc3-c3ccccc3C21 (stereo unspecified)
[3]
  mutagenic call: active; positive
Test System: CHINESE HAMSTER V-79, Strain/Indicator: V-79/6-THIOGUANINE, Metabolic Activation: NONE, Method: STANDARD PLATE
  mutagenic call: active; positive

## [O]c1nccc(=O)[nH]1
[3]
  mutagenic call: active; positive

## c1ccc2c(c1)Cc1ccc3ccc4ccccc4c3c1-2
[4]
  mutagenic call: inactive; negative
